Type in all cases: cell-based
Test [1] concerns MDA-MB-231 cells. Nature of the test: MTT cell viability assay, MDA-MB-231. Particulars: Homo sapiens; MDA-MB-231, MTT, high FOXC2 expression. As to the method:
It was hypothesized that the specific binding of MC-1-F2 can lead to its specific cellular activity against cancer cells with high FOXC2 expression. This hypothesis was tested by evaluating MC-1-F2's cellular activity on cell lines with different FOXC2 expression levels: MCF-7, BT549, and MDA-MB-231. […] However, further studies are still underway. The specificity in cellular activity of MC-1-F2 was further evaluated in the form of a soft-agar colony forming assay to determine if MC-1-F2 was able to inhibit in vitro tumorigenicity of cancer cells in a FOXC2 expression-dependent manner. […] Further testing is underway in various breast cancer cell lines with different FOXC2 expression levels.
(§1) Cell viability was assessed by MTT (3-(4,5-Dimethylthiazol-2-yl)-2,5-Diphenyltetrazolium Bromide) assay. 1×10^4 cells were seeded on 48-well cell culture plate, and were incubated for at least 24 hours prior to drug treatment. The MTT reagent (Fisher Scientific) was added to the culture medium 3 hours prior to the end of compound incubation. The reaction took place in the 37° C. incubator with 5% CO2 for 3 hours. Cell culture medium was then removed from the wells. Cells with the insoluble purple formazan were lysed with DMSO for 10 mins at room temperature, 0.5 ml per well. The solution was aliquot to 96-well plate for absorbance reading at 570 nm using a plate reader.

Test [2] has as its system MDA-MB-231 cells. Briefly: Western blot of FOXC2 target/non-target genes, EMT, CSC and apoptosis markers in MDA-MB-231. Particulars: MDA-MB-231, 20 μM. As to the method:
MC-1-F2's effect on FOXC2-mediated transcription was examined by measuring PDGFR-β expression levels, a downstream effector of FOXC2 (Hollier et al., 2013). […] (FIGS. 16A&B). To validate the specificity of the ligand to FOXC2, Western blot analysis was carried out on the non-target genes of FOXC2, p38 and GSK3P3.
Next, it was examined if FOXC2 inhibition by MC-1-F2 can affect EMT progression. […] It has been shown that inhibition of downstream or upstream targets of other EMT-associated transcription factors such as Snail, Slug and Twist leads to the decreased EMT progression, through the re-expression of E-cadherin (Bachelder et al., 2005; Ren et al., 2013). However, the impact of direct inhibition of EMT-associated transcription factors including FOXC2 on EMT progression has never been explored until now due to the lack of small molecule inhibitors directly targeting these transcription factors.
As EMT is known to bestow on cells CSC-like properties (Hollier et al., 2013), MC-1-F2 should be able to repress CSC characteristics in cells undergoing EMT. In order to examine the effects of MC-1-F2 on CSC properties, a Western blot analysis of MDA-MB-231 cell with and without treatment of MC-1-F2 was carried out, analyzing the CSC markers c-Myc, KLF4, and Nanog. […] In order to further evaluate the effect of MC-1-F2 on CSC properties and EMT progression, β-catenin nuclear localization was examined (FIG. 5D). β-catenin is involved in both EMT progression and acquisition of CSC properties (Kalluri & Weinberg, 2009, Schmalhofer et al., 2009). A repression of E-cadherin has shown to initiate a nuclear localization of β-catenin, leading to an initiation of several EMT signals (Schmalhofer et al., 2009). Moreover, nuclear localization β-catenin is the hallmark of an active Wnt pathway, a major pathway that contributes to CSC properties (Beck & Blanpain, 2013). […] Only nuclear fraction of β-catenin bestows CSC properties on cells.
50 μg of total protein per sample was incubated with 4× loading buffer at 100° C. for 5 min. Protein samples were then loaded into a polyacrylamide gel and subjected to SDS-PAGE. Resolved proteins were then transferred by a wet transfer method to a PVDF membrane at 100 V for 1 hour using a BioRad Mini Trans-Blot Electrophoresis Transfer Cell. Upon the completion of wet transfer, the membrane was then blocked with 5% (w/v) fat-free milk in 1× Tris-buffered saline/0.1% (v/v) Tween-20 (TBS-T) for at least 1 hour. Then incubated with the respective primary antibodies diluted in 5% BSA in 1×TBST at 4° C. overnight. The following day exposed to 1:1000 dilution of anti-mouse or anti-rabbit HRP-conjugated secondary antibodies in 5% (w/v) fat-free milk in 1×TBS-T for 1 hour at room temperature. The probed proteins were then detected for chemiluminescent signal using SuperSignal Chemiluminescent Substrate (PIERCE). Pierce antibodies: B-actin, and all other antibodies used are from cell signaling. MG132 treatment was added to cells (0.5 μM) for 1-hour incubation prior to compound treatment, no more than 24 hours total exceeded during MG132 incubation.
For orientation: Immunoblotting shows a protein as a band on a membrane.

The subject of a further test is PC3 cells. Nature of the test: MTT cell viability assay, PC3. The settings on record: Homo sapiens, PC-3, 24 hour treatment.
Excerpt: Inhibition of EMT in CRPC could lead to a new form of therapeutics to aid once androgen-independence is achieved. However, in order for MC-1-F2 to be considered an effective chemotherapeutic agent, its EC50 in prostate cancer needed to be determined as well as how it compares to other chemotherapeutic agents on the market and whether it is able to inhibit chemoresistance or lower the sensitivity of CRPC to commercially available drugs. In order to determine the EC50 of MC-1-F2, an MTT assay on cell viability was performed in both DU145 and PC3. […] These doses are higher than those encountered with breast cancer cell lines. This is most likely due to the lower FOXC2 expression levels founds in prostate cell lines when compared to the breast cell lines.
as §1, with “assay 5,000” for “assay. 1×10^4”, “a 96-well” for “48-well”, “plate” for “plate,”, “200 μL” for “0.5 ml”, “Absorbance” for “The solution”, “read” for “aliquot to 96-well plate for absorbance reading”
In general terms: Formazan colour is commonly taken as a measure of viable cells.

[3] abbreviates: 48 hours, non-target gene of FOXC2.

For `N=C(N)NCCCCNc1nc(Nc2ccc(Oc3ccccc3)cc2)nc(N2CCN(c3nc(N)nc(Nc4ccc(N5CCOCC5)cc4)n3)CC2)n1` [MC-1-F2], the concentration for a half-maximal effect (EC50) (commonly the concentration needed to bring the measured effect to its halfway point) in the test on MDA-MB-231 cells [1] was around 20 µM. Moreover, in the test with MDA-MB-231 cells [2] (24 or 48 hours), the PDGFR-β expression levels result is on record as “decrease in PDGFR-β expression levels”. In the test on MDA-MB-231 cells [2] (48 hours), the E-cadherin expression result is given as “increase E-cadherin expression”, the “KLF4 expression (CSC marker)” value is on record as “decrease”, the MMP2 expression result was “downregulated the expression” and the N-cadherin expression result is listed as “downregulation of N-cadherin”. Moreover, in the test with MDA-MB-231 cells [2] (48 hours), the “Nanog expression (CSC marker)” value was “no statistical difference”, the Slug expression result is recorded as “decrease in other mesenchymal markers”, the Snail protein level entry was “did not affect the protein level” and the Vimentin expression entry is “decrease in other mesenchymal markers”. Besides, in the test with MDA-MB-231 cells [2] (48 hours), the ZEB1 expression result is recorded as “downregulate ZEB1”; the “c-Myc expression (CSC marker)” value is “decrease”; the “cytosolic fraction of β-catenin” value is reported as “increase in the cytosolic fractions”; the “induction of apoptosis (Western blot of Bad, phospho-Bad, Bak, Bax)” value is given as “induction of an apoptosis”. The “nuclear fraction of β-catenin” value with MDA-MB-231 cells [2] (48 hours) is recorded as “decrease in the nuclear fraction”. Also, in the test with MDA-MB-231 cells [2] (setting [3]), the GSK3β expression levels result was “no effect on the expression levels” and the p38 expression levels result is listed as “no effect on the expression levels”. Further, the EC50 with PC3 cells was 46.6 µM.

The record behind these values is patent US10814010B2, “FOXC2 inhibitor and methods of use thereof” (The Board of Regents of The University of Texas System, priority 2018, dated 2020).
